In US20220288004A1, “TREATMENT AND PREVENTION OF AGING RELATED-DISEASE AND/OR AGING BY THE INHIBITION OF SPHINGOLIPIDS” (ECOLE POLYTECHNIQUE FEDERALE DE LAUSANNE (EPFL), priority 2019, published 2022):
“Also recorded” adds a separate entry of the source.

Columns and labels:
aged C57Bl/6JRj mice = experiment: Body composition, muscle mass and TA muscle histology in aged mice; type: in vivo, mouse
Experimental: To examine whether a causal relationship could underlie the correlation between SphPC1 and muscle mass and function, it was tested whether inhibition of sphingolipid de novo biosynthesis pathway could protect against age-related muscle dysfunction. Aged (18-month-old) C57Bl/6JRj mice were treated for 5 months on chow diet with myriocin, a specific inhibitor of SPT, the first and rate-limiting enzyme of the sphingolipid de novo synthesis pathway, and whose expression in skeletal muscle was negatively correlated with muscular fitness in BXDs.
Animals. Young (2-month-old) and aged (18-month-old) C57Bl/6JRj mice were purchased from Janvier Labs. EchoMRI measuring the fat and lean body mass, were measured before and after the treatment. The dose of myriocin was 0.4 mg/kg/3 times a week. Myriocin (Enzo Life Sciences, Farmingdale, N.Y.) was first dissolved in DMSO which was then mixed with PBS so that each mouse received 1.5 μL DMSO per injection. Animals were fed on a standard chow diet. All animals were housed in micro-isolator cages in a room illuminated from 7:00 AM to 7:00 PM with ad libitum access to diet and water. All the animal experiments are authorized by animal license 2890.1 and 3341 in Canton of Vaud, Switzerland.
Histology. TA muscles were harvested from anesthetized mice, and immediately embedded in Thermo Scientific™ Shandon™ Cryomatrix™ and frozen in isopentane, cooled in liquid nitrogen, for 1 min before being transferred to dry ice and stored at −80° C. 8 μm cryosections were incubated in 4% PFA for 15 min, washed three times for 10 min with PBS, incubated for antigen retrieval in pH 6.0 citrate buffer for 10 min at 95° C. […] Microscopy images of fluorescence from muscle fibers were analyzed using the ImageJ software. Centralized nuclei percent, minimal Feret diameter and cross-sectional area in TA muscles were determined using the ImageJ software quantification of laminin, dystrophin, and DAPI-stained muscle images from VS120-S6-W slides scanner (Olympus). […] The mean cross-sectional area of muscle fibers was calculated as the average cross-sectional area of 2,000 fibers per from sample. 7-8 mouse samples per condition were used for histological quantification of donor mice. The eMyHC quantification is expressed as proportion of eMyHC positive signal over total TA cross sectional area. Following MuSC injection in CTX injected recipient mice, inflammation representing the regenerative stage of muscle was quantified by ImageJ software as proportion of inflammatory area over total area of the TA muscle cross section. The PAX7-positive cells were quantified as the average number of cells per field of more than 30 randomly chosen fields from a mouse TA. For each quantification, 3 or more mice were used.

C2C12 myoblasts = experiment: C2C12 myoblast differentiation; type: cell-based, mouse; details: C2C12, 30 μM myriocin vs DMSO
Experimental: (§1) Cell culture and cell transfection. The C2C12 mouse myoblast cell line was obtained from the American Type Culture Collection (CRL-1772™). C2C12 cells or clones were cultured in growth medium consisting of Dulbecco's modified Eagle's medium (Gibco, 41966-029), 20% Fetal Bovine Serum (Gibco, 10270-106) and 100 U/mL penicillin and […] streptomycin (Gibco, 15140-122). To induce differentiation, FBS was substituted with 2% horse serum (Gibco, 16050-122). Trypsin-EDTA 0.05% (GIBCO, 25300-062) was used to detach cells. Human skeletal muscle cells were obtained from Lonza (SkMC, #CC-2561) and cultured in growth medium consisting of DMEM/F12 (Gibco, 10565018), 20% Fetal Bovine Serum (Gibco, 10270-106) and 100 U/mL penicillin and […] streptomycin (Gibco, 15140-122). To induce differentiation, FBS was reduced to 2% and kept in culture. All cells were maintained at 37° C. with 5% CO2. Cell transfections were done using TransiT (Mirus) according to the manufacturer's protocol with a 3:1 ratio of transfection agent to DNA. C2C12 cells were grown confluent, and 30 μM myriocin or DMSO was added and cells were kept in growth medium for another 3 days. Sptlc1 clones were plated to reach confluency simultaneously and were kept in growth medium for 3 days before using them for immunocytochemistry or RNA isolation. The concentration of myriocin in medium for all experiments was 30 μM. A stock solution of 20 mM myriocin in DMSO was used dissolve myriocin, and a corresponding volume of DMSO without myriocin was used as control.
RNA isolation and real time qPCR. RNA was isolated using the RNeasy Mini kit (Qiagen, 74106) and reverse transcribed with the High-Capacity-RNA-to-cDNA kit (Thermo Fisher, 4387406). Gene expression was measured by qPCR using the Power SybrGreen Master mix (Thermo Fisher, 4367659). All quantitative polymerase chain reaction (PCR) results were calculated relative to the mean of the housekeeping gene Gapdh. The average of two technical replicates was used for each biological data point.
Immunocytochemistry. C2C12 cells cultured on a sterilized cover slip in 6-well plates (Greiner bio-one, CELLSTAR, 657160) were fixed in Fixx solution (Thermo Scientific, 9990244) for 15 min and permeabilized in 0.1% Triton X-100 (Amresco, 0694) solution for 15 min at room temperature. Cells were blocked in 3% BSA for 1 h at room temperature to avoid unspecific antibody binding and then incubated with primary antibody over night at 4° C. with gentle shaking. […] The immunofluorescence images were acquired using either fluorescence or confocal microscopy. The myofusion index was calculated as the ratio of nuclei within myotubes to total nuclei. The myotube diameter was measured for 8 myotubes per image using ImageJ. Myotube area was calculated as the total area covered by myotubes.

human primary myoblasts = experiment: Human primary myoblast differentiation; type: cell-based; details: 30 μM myriocin vs DMSO
Experimental: as §1, with “C2C12 cells were grown confluent, and 30 μM myriocin or DMSO was added and cells were kept in growth medium for another 3 days. Sptlc1 clones were plated to reach confluency simultaneously and were kept in growth medium for 3 days before using them for immunocytochemistry or RNA isolation. The concentration of myriocin in medium for all experiments was 30 μM. A stock solution of 20 mM myriocin in DMSO was used dissolve myriocin, and a corresponding volume of DMSO without myriocin was used as control.” left out
Immunocytochemistry. […] The immunofluorescence images were acquired using either fluorescence or confocal microscopy. The myofusion index was calculated as the ratio of nuclei within myotubes to total nuclei. The myotube diameter was measured for 8 myotubes per image using ImageJ. Myotube area was calculated as the total area covered by myotubes.

CCCCCCC(=O)CCCCCCC=CCC(O)C(O)C(N)(CO)C(=O)O (stereo not shown) [myriocin, 2-Amino-3,4-dihydroxy-2-(hydroxymethyl)-14-oxoicos-6-enoic acid]
lean body mass (aged C57Bl/6JRj mice; myriocin 0.4 mg/kg i.p. 3 times per week, 5 months, EchoMRI before and after treatment): delayed age-dependent decline; also recorded: higher
cross-sectional area of muscle fibers (TA) (aged C57Bl/6JRj mice; myriocin 5 months vs DMSO): larger
number of centralized nuclei in TA muscle (aged C57Bl/6JRj mice; myriocin 5 months vs DMSO): reduced number
gastrocnemius and TA mass (aged C57Bl/6JRj mice; myriocin 5 months vs DMSO treated controls): greater; also recorded: higher
fusion index (C2C12 myoblasts): greater
myoblast differentiation (C2C12 myoblasts): accelerated
myogenic transcript signature (Myog, Myh4, Myh1) (C2C12 myoblasts): upregulation
myotube area (C2C12 myoblasts): greater
human myoblast differentiation (human primary myoblasts): accelerated
myotube area (human primary myoblasts): larger
